Source: the NIST ThermoML archive (doi:10.1021/acs.jced.7b00452)
Numbers after ± are expanded uncertainties.

Test: mn = molality of the nth substance listed, in mol/kg
Conditions: 101.3 kPa, Liquid; for speed of sound: Single path-length method; for mass density: Vibrating tube method

## CCN(CC)CCNC(=O)c1ccc(N)cc1.Cl [procainamide hydrochloride] + O
298.15 K, m1 = 0.0292
  speed of sound: 1501.6 ± 1 m/s
  mass density: 998.359 ± 0.1 kg/m3
298.15 K, m1 = 0.0328
  speed of sound: 1502.1 ± 1 m/s
  mass density: 998.521 ± 0.1 kg/m3
298.15 K, m1 = 0.043
  speed of sound: 1503.6 ± 1 m/s
  mass density: 998.975 ± 0.1 kg/m3
298.15 K, m1 = 0.0551
  speed of sound: 1505.4 ± 1 m/s
  mass density: 999.51 ± 0.1 kg/m3
298.15 K, m1 = 0.0689
  speed of sound: 1507.5 ± 1 m/s
  mass density: 1000.14 ± 0.1 kg/m3
298.15 K, m1 = 0.076
  speed of sound: 1508.5 ± 1 m/s
  mass density: 1000.45 ± 0.1 kg/m3
298.15 K, m1 = 0.0804
  speed of sound: 1509.1 ± 1 m/s
  mass density: 1000.66 ± 0.1 kg/m3
298.15 K, m1 = 0.0938
  speed of sound: 1511.1 ± 1 m/s
  mass density: 1001.27 ± 0.1 kg/m3
298.15 K, m1 = 0.1119
  speed of sound: 1513.8 ± 1 m/s
  mass density: 1002.05 ± 0.1 kg/m3
298.15 K, m1 = 0.1194
  speed of sound: 1514.9 ± 1 m/s
  mass density: 1002.38 ± 0.1 kg/m3
298.15 K, m1 = 0.1306
  speed of sound: 1516.6 ± 1 m/s
  mass density: 1002.87 ± 0.1 kg/m3
298.15 K, m1 = 0.1402
  speed of sound: 1517.9 ± 1 m/s
  mass density: 1003.3 ± 0.11 kg/m3
298.15 K, m1 = 0.1601
  speed of sound: 1520.9 ± 1 m/s
  mass density: 1004.18 ± 0.11 kg/m3
298.15 K, m1 = 0.1715
  speed of sound: 1522.6 ± 1 m/s
  mass density: 1004.66 ± 0.11 kg/m3
308.15 K, m1 = 0.0292
  speed of sound: 1524.2 ± 1 m/s
  mass density: 995.314 ± 0.11 kg/m3
308.15 K, m1 = 0.0328
  speed of sound: 1524.6 ± 1 m/s
  mass density: 995.471 ± 0.11 kg/m3
308.15 K, m1 = 0.043
  speed of sound: 1525.8 ± 1 m/s
  mass density: 995.914 ± 0.1 kg/m3
308.15 K, m1 = 0.0551
  speed of sound: 1527.1 ± 1 m/s
  mass density: 996.435 ± 0.1 kg/m3
308.15 K, m1 = 0.0689
  speed of sound: 1528.6 ± 1 m/s
  mass density: 997.048 ± 0.1 kg/m3
308.15 K, m1 = 0.076
  speed of sound: 1529.5 ± 1 m/s
  mass density: 997.346 ± 0.1 kg/m3
308.15 K, m1 = 0.0804
  speed of sound: 1530 ± 1 m/s
  mass density: 997.55 ± 0.1 kg/m3
308.15 K, m1 = 0.0938
  speed of sound: 1531.7 ± 1 m/s
  mass density: 998.14 ± 0.1 kg/m3
308.15 K, m1 = 0.1119
  speed of sound: 1533.8 ± 1 m/s
  mass density: 998.919 ± 0.1 kg/m3
308.15 K, m1 = 0.1194
  speed of sound: 1534.8 ± 1 m/s
  mass density: 999.225 ± 0.1 kg/m3
308.15 K, m1 = 0.1306
  speed of sound: 1536.1 ± 1 m/s
  mass density: 999.706 ± 0.1 kg/m3
308.15 K, m1 = 0.1402
  speed of sound: 1537.3 ± 1 m/s
  mass density: 1000.12 ± 0.1 kg/m3
308.15 K, m1 = 0.1601
  speed of sound: 1539.7 ± 1 m/s
  mass density: 1000.98 ± 0.1 kg/m3
308.15 K, m1 = 0.1715
  speed of sound: 1541.1 ± 1 m/s
  mass density: 1001.46 ± 0.1 kg/m3
318.15 K, m1 = 0.0292
  speed of sound: 1538.9 ± 1 m/s
  mass density: 991.46 ± 0.11 kg/m3
318.15 K, m1 = 0.0328
  speed of sound: 1539.2 ± 1 m/s
  mass density: 991.615 ± 0.11 kg/m3
318.15 K, m1 = 0.043
  speed of sound: 1540.3 ± 1 m/s
  mass density: 992.05 ± 0.11 kg/m3
318.15 K, m1 = 0.0551
  speed of sound: 1541.3 ± 1 m/s
  mass density: 992.563 ± 0.11 kg/m3
318.15 K, m1 = 0.0689
  speed of sound: 1542.7 ± 1 m/s
  mass density: 993.168 ± 0.11 kg/m3
318.15 K, m1 = 0.076
  speed of sound: 1543.3 ± 1 m/s
  mass density: 993.461 ± 0.11 kg/m3
318.15 K, m1 = 0.0804
  speed of sound: 1543.7 ± 1 m/s
  mass density: 993.641 ± 0.11 kg/m3
318.15 K, m1 = 0.0938
  speed of sound: 1544.9 ± 1 m/s
  mass density: 994.212 ± 0.11 kg/m3
318.15 K, m1 = 0.1119
  speed of sound: 1546.4 ± 1 m/s
  mass density: 994.982 ± 0.11 kg/m3
318.15 K, m1 = 0.1194
  speed of sound: 1547.1 ± 1 m/s
  mass density: 995.305 ± 0.11 kg/m3
318.15 K, m1 = 0.1306
  speed of sound: 1548 ± 1 m/s
  mass density: 995.779 ± 0.11 kg/m3
318.15 K, m1 = 0.1402
  speed of sound: 1548.9 ± 1 m/s
  mass density: 996.189 ± 0.11 kg/m3
318.15 K, m1 = 0.1601
  speed of sound: 1550.6 ± 1 m/s
  mass density: 997.035 ± 0.11 kg/m3
318.15 K, m1 = 0.1715
  speed of sound: 1551.6 ± 1 m/s
  mass density: 997.488 ± 0.1 kg/m3
